Reference: ChEMBL document CHEMBL1124111, “Studies directed toward ascertaining the active conformation of 1,4-dihydropyridine calcium entry blockers” (J Med Chem, 1988)

Assays:
[1] = tested on: Voltage-dependent L-type calcium channel (Cavia porcellus); assay: Bmax2 from dihydropyridine receptor binding assay in guinea pig myocardial membranes
[2] = tested on: Voltage-dependent L-type calcium channel (Cavia porcellus); assay: Bmax1 from dihydropyridine receptor binding assay in guinea pig myocardial membranes
[3] = target: Voltage-dependent L-type calcium channel (Cavia porcellus); assay: Dissociation constant for inhibition of [3H]nitrendipine binding to guinea pig myocardial membranes; conditions: read-out: Kd2
[4] = target: Voltage-dependent L-type calcium channel (Cavia porcellus); assay: as above; conditions: read-out: Kd1
Oryctolagus cuniculus = organism: Oryctolagus cuniculus; assay: Compound was tested for ability to relax potassium-contracted rabbit aorta smooth muscle; type: functional
[5] = target: Voltage-dependent L-type calcium channel (Cavia porcellus); assay: Dissociation constant for inhibition of [3H]nitrendipine binding to guinea pig myocardial membranes; conditions: read-out: Kd2; remark: listed apart in the source

Bmax2 [1] [%] | Bmax1 [2] [%] | Kd [3] [nM] | Kd [4] [nM] | IC50 (Oryctolagus cuniculus) [nM] | Kd [5] [nM] | Structure (SMILES)
92 | 8 | 107 | 1.25 | 185 |  | COC(=O)C1=C(C)N=C(C)/C(=C(\O)OC)C1c1ccc([N+](=O)[O-])cc1Cl (stereo unspecified)
17 | 83 |  | 2.15 | 11.1 | 152 | COC(=O)C1=C(C)N=C(C)/C(=C(\O)OC)C1c1cccc(C#N)c1 (stereo unspecified)
79 | 21 |  | 0.006 | 3 | 1 | COC(=O)C1=C(C)N=C(C)/C(=C(\O)OC)C1c1ccccc1Cl (stereo unspecified)

Continued, compound first:

Structure (SMILES) | Bmax2 [1] [%] | Bmax1 [2] [%] | Kd [3] [nM] | Kd [4] [nM] | IC50 (Oryctolagus cuniculus) [nM] | Kd [5] [nM]
COC(=O)C1=C(C)N=C(C)/C(=C(\O)OC)C1c1cccc([N+](=O)[O-])c1Cl (stereo unspecified) | 21 | 79 |  | 0.23 | 1 | 85
COC(=O)C1=C(C)N=C(C)/C(=C(\O)OC)C1c1cc([N+](=O)[O-])ccc1Cl (stereo unspecified) | 51 | 49 |  | 0.95 | 13.6 | 74.4
COC(=O)C1=C(C)NC(C)=C(C(=O)OC)C1c1ccccc1[N+](=O)[O-] [NIFEDIPINE] |  |  |  |  | 0.5 | 
